Source: US20090068290A1, “BIFEPRUNOX DOSES FOR TREATING SCHIZOPHRENIA” (priority 2006, published 2009)
Read-outs that look alike come from different tables or passages of the source.

Tests used:
[1] = Pharmacokinetic interaction of lithium and bifeprunox in healthy male subjects; assay type: in vivo, human; settings: bifeprunox up to 40 mg per day and lithium 450 mg twice daily
Protocol: Because bifeprunox may be used in combination with the mood-stabilizing drug lithium for the treatment of patients with psychoses and mood disorders, the effect of multiple doses of bifeprunox on the pharmacokinetic (PK) profile of lithium was evaluated. Lithium has a narrow therapeutic index that can complicate therapy, and serum levels greater than 1.5 mmol/L carry a greater risk of lithium toxicity than do lower levels.
METHODS: This was a single center, double-blind, randomized, placebo-controlled, parallel-design study in 48 healthy male subjects. All subjects were to receive open-label lithium (450 mg) twice daily on days 1 through 8 and, provided serum levels were stable on days 5 through 7, again on days 9 through 20. Subjects whose serum levels were stable on days 5 through 7 were included in those randomized to receive, in addition to lithium 450 mg twice daily, either placebo or a rising dose of bifeprunox (0.025-40 mg) once daily on days 9 through 17, and placebo or bifeprunox 40 mg on days 18 through 21. Only a single morning dose of lithium 450 mg was administered on day 21. Lithium, steady-state Cmax, AUC over the dosing interval (0-t), and renal clearance (CL-R) values were compared between the bifeprunox and placebo groups using ANCOVA with baseline values of lithium measured on day 8 as covariate.

[2] = Pharmacokinetics of bifeprunox, pooled analysis and population PK; assay type: in vivo, human; settings: for half-life: read-out: mean plasma steady-state (elimination) half-life (converted)
[3] = system: patients with chronic schizophrenia; assay: Time to deterioration, Clinical Study Four (6-month, placebo-controlled); assay type: in vivo, human; settings: for proportion of patients who deteriorated / time to deterioration of schizophrenia versus PBO (in words): 6 months; for proportion of patients who deteriorated / estimated hazard ratio relative to PBO, time to deterioration (Cox proportional hazards model) / Hazard Ratio (Cox), time to deterioration / % Deteriorated / No. of Pts Deteriorated: FAS; for time to deterioration of schizophrenia versus PBO (in words): BX 20 and 30 mg/day
Protocol: (§1) METHODOLOGY: This study was a multinational, multicenter, randomized, double-blind, parallel-group, placebo-controlled, fixed-dose study. The study consisted of a 3- to 6-day antipsychotic-free run-in period, after which patients were randomised to 6 months of double-blind treatment with fixed doses of bifeprunox (20 mg/day (BX20) or 30 mg/day (BX30)) or placebo (PBO). Patients allocated to the BX groups were up-titrated from 0.25 mg/day over 7 days (BX20) or 8 days (BX30), and then continued on these doses for the remainder of the study. […] At predetermined time points, blood samples were obtained for drug concentration analysis of BX and its major metabolites (3′- and 4′-sulfate conjugates of BX), and pharmaco-economic assessments were performed.
Investigational Product, Dose and Mode of Administration, Batch Number: Bifeprunox—up-titration over 7 (20 mg) or 8 days (30 mg) to 20 or 30 mg once daily; encapsulated tablets, orally.
Reference Thera Dose and Mode of Administration: Placebo—encapsulated tablets, orally.

[4] = system: patients with chronic schizophrenia; assay: CDSS total score, Clinical Study Four; assay type: in vivo, human; settings: FAS, ANCOVA; for CDSS total, Adjusted Mean Change from Baseline (LS mean): LOCF
Protocol: as §1

[5] = Incidence of hyperglycemia and diabetes-related adverse events in placebo-controlled trials; assay type: in vivo, human
Source text: Hyperglycemia, in some cases extreme and associated with ketoacidosis or hyperosmolar coma or death, has been reported in patients treated with atypical antipsychotics. The incidence of hyperglycemia and diabetes-related adverse events (such as hyperglycemia, elevated blood glucose, impaired glucose tolerance, diabetes mellitus, inadequately controlled diabetes) in patients treated with bifeprunox was 0.5% (5/1050) and in placebo-treated patients was 0.6% (3/469) in six-week placebo-controlled trials. […] Assessment of the relationship between atypical antipsychotic use and glucose abnormalities is complicated by the possibility of an increased background risk of diabetes mellitus in patients with schizophrenia and the increasing incidence of diabetes mellitus in the general population. Given these confounders, the relationship between atypical antipsychotic use and hyperglycemia-related adverse events is not completely understood. […] Because bifeprunox was not marketed at the time these studies were performed, it is not known if bifeprunox is associated with this increased risk. Precise risk estimates for hyperglycemia-related adverse events in patients treated with atypical antipsychotics are not available.

[6] = system: patients with chronic schizophrenia; assay: PANSS general psychopathology subscale score, Clinical Study Four; assay type: in vivo, human; settings: FAS, ANCOVA; for PANSS general psychopathology, Adjusted Mean Change from Baseline (LS mean): LOCF
Protocol: as §1

[7] = system: patients with chronic schizophrenia; assay: CGI-S score, Clinical Study Four; assay type: in vivo, human; settings: FAS, ANCOVA; for CGI-S, Adjusted Mean Change from Baseline (LS mean): LOCF; for mean CGI-S scores, time points of statistically significant superiority to PBO: per-visit LOCF analysis
Protocol: as §1

CYP2C9, CYP3A4, CYP2D6 = assay: Metabolism and drug interactions of bifeprunox
Source text: The objective of this study is to assess the pharmacokinetics (PK) of bifeprunox. The PK of bifeprunox in healthy subjects were investigated based on a pooled analysis of PK parameters from 21 clinical pharmacology studies. The pooled analysis included PK profiles after single and multiple doses to 132 and 399 subjects, respectively, and explored the potential effects of age, gender, body weight, and race. In addition, PK in patients with schizophrenia were investigated using a population PK approach based on samples from 376 patients in phase II studies and 434 patients in phase III studies.

[8] = system: patients with chronic schizophrenia; assay: PANSS positive subscale score, Clinical Study Four; assay type: in vivo, human; settings: FAS, ANCOVA; for PANSS positive subscale, Adjusted Mean Change from Baseline (LS mean): LOCF
Protocol: as §1

O=c1[nH]c2cccc(N3CCN(Cc4cccc(-c5ccccc5)c4)CC3)c2o1 [Bifeprunox, 7-[4-([1,1′-biphenyl]-3-ylmethyl)-1-piperazinyl]-2(3H)-benzoxazolone]
tolerability of combined administration [1]: well tolerated | half-life ([2]; human, in vivo, po): 14.4 h | Tmax ([2]; human, in vivo, oral administration, all dose levels): 1.5 to 2 h | half-life ([2]; human, in vivo, oral): ~14 h | dose proportionality of multiple-dose PK [2]: dose-proportional in the 20-40 mg/day range | dose proportionality of multiple-dose PK ([2]; listed as bifeprunox): dose-proportional in the 2040 mg range | age-, gender-, body weight- or race-related effects on PK ([2]; pooled analysis): No clinically significant age-, gender-, body weight- or race-related effects | mean apparent clearance ([2]; steady-state, oral): 62.2 L/h | mean apparent volume of distribution ([2]; steady-state, oral): 1300 L | proportion of patients who deteriorated ([3]; BX20 (20 mg/day)): 41% | estimated hazard ratio relative to PBO, time to deterioration (Cox proportional hazards model) ([3]; BX20 (20 mg/day)): 0.66 | Hazard Ratio (Cox), time to deterioration ([3]; BX20 (bifeprunox 20 mg) relative to PBO): 0.656 | % Deteriorated ([3]; BX20 (bifeprunox 20 mg)): 40.5% | No. of Pts Deteriorated ([3]; BX20 (bifeprunox 20 mg), N 158): 64 | time to deterioration of schizophrenia versus PBO (in words) [3]: prevented deterioration of schizophrenia statistically significantly better than placebo | time to deterioration of schizophrenia versus PBO (in words) ([3]; listed as BX): statistically significantly longer time to deterioration | proportion of patients who deteriorated ([3]; BX30 (30 mg/day)): 38% | estimated hazard ratio relative to PBO, time to deterioration (Cox proportional hazards model) ([3]; BX30 (30 mg/day)): 0.65 | Hazard Ratio (Cox), time to deterioration ([3]; BX30 (bifeprunox 30 mg) relative to PBO): 0.653 | % Deteriorated ([3]; BX30 (bifeprunox 30 mg)): 38.4% | No. of Pts Deteriorated ([3]; BX30 (bifeprunox 30 mg), N 172): 66 | CDSS total, Adjusted Mean Change from Baseline (LS mean) ([4]; Month 6, listed as BX20): 0.0 | CDSS total, Adjusted Mean Change from Baseline (LS mean) ([4]; Month 6, listed as BX30): 0.1 | CDSS total, Adjusted Mean Change from Baseline (LS mean) ([4]; Week 6, listed as BX20): −0.2 | CDSS total, Adjusted Mean Change from Baseline (LS mean) ([4]; Week 6, listed as BX30): −0.1 | mean CDSS total scores versus PBO, per-visit LOCF analysis ([4]; either BX group): no statistically significant differences | hyperglycemia or diabetes-related adverse events ([5]; 26-week placebo-controlled trial): no patients reported | incidence of hyperglycemia and diabetes-related adverse events ([5]; six-week placebo-controlled trials): 0.5% | PANSS general psychopathology subscale scores versus PBO, per-visit LOCF analysis ([6]; BX20 and BX30): statistically significantly superior to PBO from Week 9 onwards | PANSS general psychopathology, Adjusted Mean Change from Baseline (LS mean) ([6]; Month 6, listed as BX20): 0.4 | PANSS general psychopathology, Adjusted Mean Change from Baseline (LS mean) ([6]; Month 6, listed as BX30): 0.8 | PANSS general psychopathology, Adjusted Mean Change from Baseline (LS mean) ([6]; Week 6, listed as BX20): −1.2 | PANSS general psychopathology, Adjusted Mean Change from Baseline (LS mean) ([6]; Week 6, listed as BX30): −0.4 | CGI-S, Adjusted Mean Change from Baseline (LS mean) ([7]; Month 6, listed as BX20): −0.1 | CGI-S, Adjusted Mean Change from Baseline (LS mean) ([7]; Month 6, listed as BX30): 0.0 | CGI-S, Adjusted Mean Change from Baseline (LS mean) ([7]; Week 6, listed as BX20): −0.2 | CGI-S, Adjusted Mean Change from Baseline (LS mean) ([7]; Week 6, listed as BX30): −0.1 | mean CGI-S scores, time points of statistically significant superiority to PBO ([7]; listed as BX20): Months 3, 4, 5, and 6 | mean CGI-S scores, time points of statistically significant superiority to PBO ([7]; listed as BX30): Months 5 and 6 | metabolizing enzymes (CYP2C9, CYP3A4, CYP2D6; human, in vivo): metabolized by CYP2C9, CYP3A4 and to a lesser extent, CYP2D6 | interaction potential (CYP2C9, CYP3A4, CYP2D6; in vivo): low interaction potential | plasma levels in CYP2C9 slow/intermediate metabolizers (CYP2C9, CYP3A4, CYP2D6; vs subjects with normal enzyme activity): higher plasma levels | bifeprunox exposure on co-administration (CYP2C9, CYP3A4, CYP2D6; with carbamazepine (CYP3A4 inducer)): reduced | bifeprunox exposure on co-administration (CYP2C9, CYP3A4, CYP2D6; with fluconazole (CYP2C9 inhibitor)): increased | PANSS positive subscale scores versus PBO, per-visit LOCF analysis ([8]; BX20 or BX30): statistically significantly superior to that with PBO from Week 6 onwards | PANSS positive subscale, Adjusted Mean Change from Baseline (LS mean) ([8]; Month 6): 0.3 | PANSS positive subscale, Adjusted Mean Change from Baseline (LS mean) ([8]; Week 6, listed as BX20): −0.9 | PANSS positive subscale, Adjusted Mean Change from Baseline (LS mean) ([8]; Week 6, listed as BX30): −0.8
